# Several values for one entry are separate records, joined by “and”; a condition that tells them apart may be missing. Equal values may be shown once. Read-outs that look alike come from different tables or passages of the source.
# What was measured:
# Assay type in all cases: cell-based
# [1] = system: Alternaria solani; experiment: Alternaria solani liquid culture growth inhibition; settings: for inhibition at 0.0008 ppm: read-out: Compound 1.001 inhibition (%), 0.0008 ppm; for inhibition at 0.0016 ppm: read-out: Compound 1.001 inhibition (%), 0.0016 ppm; for inhibition at 0.0031 ppm: read-out: Compound 1.001 inhibition (%), 0.0031 ppm
# Method: (§1) Liquid Culture Tests in Well Plates
# Mycelia fragments or conidia suspensions of a fungus, prepared either freshly from liquid cultures of the fungus or from cryogenic storage, were directly mixed into nutrient broth. DMSO solutions of the test compound (max. 10 mg/ml) was diluted with 0.025% Tween20 by factor 50 and 10 μl of this solution was pipetted into a microtiter plate (96-well format). […] The test plates were incubated in the dark at 24° C. and 96% rh. The inhibition of fungal growth was determined photometrically and visually after 2-4 days, depending on the pathosystem, and percent antifungal activity relative to the untreated check was calculated.
# Alternaria solanil/Liquid Culture:
# (§2) Conidia of the fungus from cryogenic storage were directly mixed into nutrient broth (PDB potato dextrose broth). After placing a (DMSO) solution of test compound into a microtiter plate (96-well format), the nutrient broth containing the fungal spores was added.
# [2] = system: Botryotinia fuckeliana (Botrytis cinerea); experiment: Botryotinia fuckeliana (Botrytis cinerea) liquid culture growth inhibition; settings: for inhibition at 0.0016 ppm: read-out: Compound 1.001 inhibition (%), 0.0016 ppm; for inhibition at 0.0125 ppm: read-out: Compound 1.001 inhibition (%), 0.0125 ppm
# Method: as §1
# (§3) Mycelia fragments or conidia suspensions of a fungus, prepared either freshly from liquid cultures of the fungus or from cryogenic storage, were directly mixed into nutrient broth. DMSO solutions of the test compound (max. 10 mg/ml) was diluted with 0.025% Tween20 by factor 50 and 10 μl of this solution was pipetted into a microtiter plate (96-well format). The nutrient broth containing the fungal spores/mycelia fragments was then added to give an end concentration of the tested compound. The test plates were incubated in the dark at 24° C. and 96% rh. The inhibition of fungal growth was determined photometrically and visually after 2-4 days, depending on the pathosystem, and percent antifungal activity relative to the untreated check was calculated.
# Botryotinia fuckeliana (Botrytis cinerea)/Liquid Culture:
# Conidia of the fungus from cryogenic storage were directly mixed into nutrient broth (Vogels broth). After placing a (DMSO) solution of test compound into a microtiter plate (96-well format), the nutrient broth containing the fungal spores was added.
# [3] = system: Fusarium culmorum; experiment: Fusarium culmorum liquid culture growth inhibition; settings: for inhibition at 0.025 ppm: read-out: Compound 1.001 inhibition (%), 0.0250 ppm; for inhibition at 0.05 ppm: read-out: Compound 1.001 inhibition (%), 0.0500 ppm
# Method: as §1, §3
# Fusarium culmorum/Liquid Culture:
# as §2
# [4] = system: Gaeumannomyces graminis; experiment: Gaeumannomyces graminis liquid culture growth inhibition; settings: Gaeumannomyces graminis, read-out: Compound 1.001 inhibition (%), in PDB
# Method: as §1, §3
# Gaeumannomyces graminis/Liquid Culture:
# Mycelial fragments of the fungus from cryogenic storage were directly mixed into nutrient broth (PDB potato dextrose broth). After placing a (DMSO) solution of test compound into a microtiter plate (96-well format), the nutrient broth containing the fungal spores was added.
# [5] = system: Monographella nivalis (Microdochium nivale); experiment: Monographella nivalis (Microdochium nivale) liquid culture growth inhibition
# Method: as §1, §3
# Monographella nivalis (Microdochium nivale)/Liquid Culture:
# as §2
# [6] = system: Mycosphaerella graminicola (Septoria tritici); experiment: Mycosphaerella graminicola (Septoria tritici) liquid culture growth inhibition; settings: for inhibition at 0.0008 ppm / inhibition at 0.0016 ppm / inhibition at 0.0031 ppm: Zymoseptoria tritici; for inhibition at 0.0008 ppm: read-out: Compound 1.001 inhibition (%), 0.0008 ppm; for inhibition at 0.0016 ppm: read-out: Compound 1.001 inhibition (%), 0.0016 ppm; for inhibition at 0.0031 ppm: read-out: Compound 1.001 inhibition (%), 0.0031 ppm
# Method: as §1, §3
# Mycosphaerella graminicola (Septoria tritici)/Liquid Culture:
# as §2
# [7] = system: Pythium ultimum; experiment: Pythium ultimum (seedling damping off) liquid culture growth inhibition; settings: Globisporangium ultimum, read-out: Compound 1.001 inhibition (%), PDB
# Method: as §1, §3
# Pythium ultimum Seedling Damping Off)/Liquid Culture:
# Mycelia fragments and oospores of a newly grown liquid culture of the fungus were directly mixed into nutrient broth (PDB potato dextrose broth). After placing a (DMSO) solution of the test compounds into a microtiter plate (96-well format), the nutrient broth containing the fungal mycelia/spore mixture was added.
# [8] = Alternaria solani, PDB, Table 7
# [9] = Alternaria solani, PDB, Table 9
# [10] = Alternaria solani, PDB, Table 11
# [11] = Alternaria solani, PDB, Table 13
# [12] = Botrytis cinerea, Vogels Broth, Table 6
# [13] = Botrytis cinerea, in Vogels Broth
# [14] = Fusarium culmorum, PDB, Table 4
smiles,measurement,setting,value
"CON(C(=O)c1cn(C)nc1C(F)F)C(C)Cc1c(Cl)cc(Cl)cc1Cl (stereo not drawn) [Compound 1.001, 3-(difluoromethyl)-N-methoxy-1-methyl-N-[1-methyl-2-(2,4,6-trichlorophenyl)ethyl]pyrazole-4-carboxamide]",Compound 1.001 inhibition (%),"[1]; 0.0016 ppm, in PDB",74%
same,inhibition at 0.0004 ppm,"[1]; Alternaria solani, read-out: Compound 1.001 inhibition (%), 0.0004 ppm, in PDB",21%
same,inhibition at 0.0008 ppm,[1]; [8],36%
same,inhibition at 0.0008 ppm,[1]; [9],37%
same,inhibition at 0.0008 ppm,[1]; [10],42%
same,inhibition at 0.0008 ppm,[1]; [11],51%
same,inhibition at 0.0016 ppm,[1]; [8],57%
same,inhibition at 0.0016 ppm,[1]; [9],64%
same,inhibition at 0.0016 ppm,[1]; [10],68%
same,inhibition at 0.0016 ppm,[1]; [11],69%
same,inhibition at 0.0016 ppm,"[1]; Alternaria solani, in PDB",65%
same,inhibition at 0.0031 ppm,[1]; [8],81%
same,inhibition at 0.0031 ppm,[1]; [11],82%
same,Compound 1.001 inhibition (%),"[2]; 0.0016 ppm, in Vogels Broth",33% and 29%
same,Compound 1.001 inhibition (%),"[2]; 0.0031 ppm, in Vogels Broth",54%
same,Compound 1.001 inhibition (%),"[2]; 0.0063 ppm, in Vogels Broth",62% and 38%
same,inhibition at 0.0004 ppm,"[2]; Botrytis cinerea, read-out: Compound 1.001 inhibition (%), 0.0004 ppm, in Vogels Broth",8%
same,inhibition at 0.0008 ppm,"[2]; Botrytis cinerea, read-out: Compound 1.001 inhibition (%), 0.0008 ppm, in Vogels Broth",21%
same,inhibition at 0.0016 ppm,[2]; [12],16%
same,inhibition at 0.0016 ppm,[2]; [13],26%
same,inhibition at 0.0031 ppm,"[2]; Botrytis cinerea, read-out: Compound 1.001 inhibition (%), 0.0031 ppm, Vogels Broth, Table 6",49%
same,inhibition at 0.0031 ppm,"[2]; Botrytis cinerea, read-out: Compound 1.001 inhibition (%), 0.0031 ppm, in Vogels Broth",44%
same,inhibition at 0.0063 ppm,"[2]; Botrytis cinerea, read-out: Compound 1.001 inhibition (%), 0.0063 ppm, Vogels Broth, Table 6",61%
same,inhibition at 0.0125 ppm,[2]; [12],79%
same,inhibition at 0.0125 ppm,[2]; [13],79%
same,inhibition at 0.0031 ppm,"[2]; Botrytis cinerea, read-out: Compound 1.001 inhibition (%), compound 1.001 alone at 0.0031 ppm, in Vogels Broth",40%
same,inhibition at 0.0063 ppm,"[2]; Botrytis cinerea, read-out: Compound 1.001 inhibition (%), compound 1.001 alone at 0.0063 ppm, in Vogels Broth",60%
same,Compound 1.001 inhibition (%),"[3]; 0.0250 ppm, in PDB",27% and 34% and 29%
same,Compound 1.001 inhibition (%),"[3]; 0.0500 ppm, in PDB",54% and 53%
same,Compound 1.001 inhibition (%),"[3]; 0.1000 ppm, in PDB",57%
same,Compound 1.001 inhibition (%),"[3]; 0.2000 ppm, in PDB",59% and 57%
same,inhibition at 0.0016 ppm,"[3]; Fusarium culmorum, read-out: Compound 1.001 inhibition (%), 0.0016 ppm, PDB, Table 4",7%
same,inhibition at 0.0031 ppm,"[3]; Fusarium culmorum, read-out: Compound 1.001 inhibition (%), 0.0031 ppm, PDB, Table 4",19%
same,inhibition at 0.0063 ppm,"[3]; Fusarium culmorum, read-out: Compound 1.001 inhibition (%), 0.0063 ppm, PDB, Table 4",14%
same,inhibition at 0.0125 ppm,"[3]; Fusarium culmorum, read-out: Compound 1.001 inhibition (%), 0.0125 ppm, PDB, Table 4",20%
same,inhibition at 0.025 ppm,[3]; [14],38%
same,inhibition at 0.025 ppm,"[3]; Fusarium culmorum, in PDB",24%
same,inhibition at 0.05 ppm,[3]; [14],46%
same,inhibition at 0.05 ppm,"[3]; Fusarium culmorum, in PDB",49%
same,inhibition at 0.1 ppm,"[3]; Fusarium culmorum, read-out: Compound 1.001 inhibition (%), 0.1000 ppm, in PDB",51%
same,inhibition at 0.2 ppm,"[3]; Fusarium culmorum, read-out: Compound 1.001 inhibition (%), 0.2000 ppm, in PDB",55%
same,inhibition at 0.025 ppm,[4]; 0.0250 ppm,0%
same,inhibition at 0.05 ppm,[4]; 0.0500 ppm,0%
same,inhibition at 0.2 ppm,[4]; 0.2000 ppm,0%
same,Compound 1.001 inhibition (%),"[5]; 0.0008 ppm, in PDB",3%
same,Compound 1.001 inhibition (%),"[5]; 0.0250 ppm, in PDB",5%
same,Compound 1.001 inhibition (%),"[5]; 0.0500 ppm, in PDB",48%
same,inhibition at 0.0004 ppm,"[5]; Monographella nivalis, read-out: Compound 1.001 inhibition (%), 0.0004 ppm, PDB, Table 5",0%
same,inhibition at 0.0008 ppm,"[5]; Monographella nivalis, read-out: Compound 1.001 inhibition (%), 0.0008 ppm, PDB, Table 5",0%
same,inhibition at 0.0008 ppm,"[5]; Monographella nivalis, read-out: Compound 1.001 inhibition (%), 0.0008 ppm, in PDB",2%
same,inhibition at 0.0016 ppm,"[5]; Monographella nivalis, read-out: Compound 1.001 inhibition (%), 0.0016 ppm, PDB, Table 5",0%
same,inhibition at 0.0016 ppm,"[5]; Monographella nivalis, read-out: Compound 1.001 inhibition (%), 0.0016 ppm, in PDB",0%
same,inhibition at 0.0031 ppm,"[5]; Monographella nivalis, read-out: Compound 1.001 inhibition (%), 0.0031 ppm, PDB, Table 5",0%
same,inhibition at 0.0125 ppm,"[5]; Monographella nivalis, read-out: Compound 1.001 inhibition (%), 0.0125 ppm, in PDB",0%
same,inhibition at 0.05 ppm,"[5]; Monographella nivalis, read-out: Compound 1.001 inhibition (%), 0.0500 ppm, in PDB",51%
same,inhibition at 0.0004 ppm,"[5]; Monographella nivalis, read-out: Compound 1.001 inhibition (%), compound 1.001 alone at 0.0004 ppm, in PDB",4%
same,inhibition at 0.0008 ppm,"[5]; Monographella nivalis, read-out: Compound 1.001 inhibition (%), compound 1.001 alone at 0.0008 ppm, in PDB",1%
same,inhibition at 0.0016 ppm,"[5]; Monographella nivalis, read-out: Compound 1.001 inhibition (%), compound 1.001 alone at 0.0016 ppm, in PDB",0%
same,inhibition at 0.0063 ppm,"[5]; Monographella nivalis, read-out: Compound 1.001 inhibition (%), compound 1.001 alone at 0.0063 ppm, in PDB (Table 38)",0%
same,inhibition at 0.0125 ppm,"[5]; Monographella nivalis, read-out: Compound 1.001 inhibition (%), compound 1.001 alone at 0.0125 ppm, in PDB",0%
same,inhibition at 0.0125 ppm,"[5]; Monographella nivalis, read-out: Compound 1.001 inhibition (%), compound 1.001 alone at 0.0125 ppm, in PDB (Table 38)",0%
same,Compound 1.001 inhibition (%),"[6]; 0.0016 ppm, in PDB",33%
same,Compound 1.001 inhibition (%),"[6]; 0.0031 ppm, in PDB",82%
same,inhibition at 0.0008 ppm,"[6]; PDB, Table 8",15%
same,inhibition at 0.0008 ppm,[6]; in PDB,19%
same,inhibition at 0.0016 ppm,"[6]; PDB, Table 8",34%
same,inhibition at 0.0016 ppm,"[6]; PDB, Table 12",54%
same,inhibition at 0.0016 ppm,"[6]; PDB, Table 14",47%
same,inhibition at 0.0031 ppm,"[6]; PDB, Table 8",81%
same,inhibition at 0.0031 ppm,[6]; in PDB,83%
same,inhibition at 0.0016 ppm,"[7]; 0.0016 ppm, Table 10",0%
same,inhibition at 0.0031 ppm,"[7]; 0.0031 ppm, Table 10",0%
same,inhibition at 0.0063 ppm,"[7]; 0.0063 ppm, Table 3",11%
same,inhibition at 0.0125 ppm,"[7]; 0.0125 ppm, Table 3",0%
same,inhibition at 0.025 ppm,"[7]; 0.0250 ppm, Table 3",0%
same,inhibition at 0.05 ppm,"[7]; 0.0500 ppm, Table 3",0%
same,inhibition at 0.1 ppm,"[7]; 0.1000 ppm, Table 3",2%
same,inhibition at 0.2 ppm,"[7]; 0.2000 ppm, Table 3",0%

# Source: patent US9770025B2, “Fungicidal compositions” (Syngenta Participations AG, priority 2013, dated 2017)
